The target of the experiment is Aurora kinase B (Homo sapiens) (UniProt Q96GD4). The experiment is described as follows: Inhibition of Aurora1 by HTRF kinase assay.
Chain of Aurora kinase B (Homo sapiens) (Q96GD4 whole entry, looked up): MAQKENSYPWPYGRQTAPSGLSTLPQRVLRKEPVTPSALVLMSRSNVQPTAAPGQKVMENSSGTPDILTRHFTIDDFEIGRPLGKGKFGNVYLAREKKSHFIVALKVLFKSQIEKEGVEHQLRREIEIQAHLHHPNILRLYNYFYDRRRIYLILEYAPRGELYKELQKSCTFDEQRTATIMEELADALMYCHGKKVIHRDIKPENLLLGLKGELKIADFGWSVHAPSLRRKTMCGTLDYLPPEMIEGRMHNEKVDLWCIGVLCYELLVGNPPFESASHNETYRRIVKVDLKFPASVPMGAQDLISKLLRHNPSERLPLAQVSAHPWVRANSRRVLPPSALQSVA

Take `CNc1ncc2cc(-c3cc(C(=O)Nc4cc(C(F)(F)F)ccc4OC4CCN(C)CC4)ccc3C)ccc2n1` [4-methyl-3-(2-(methylamino)quinazolin-6-yl)-N-(2-(1-methylpiperidin-4-yloxy)-5-(trifluoromethyl)phenyl)benzamide]: the IC50 was > 5 µM.

The values above are taken from BindingDB's records for doi:10.1021/jm0605482 (Amgen, 2006).
